Experimental data reported in patent US6455761B1, “Agrobacterium-mediated transformation of turnip rape” (Helsinki University Licensing Ltd. Oy, priority 1997, dated 2002).

Experiments:
[1] = system: inflorescence stem segments of turnip rape plants; assay: Effect of cultivation factors on transformation of inflorescence stem segments by Agrobacterium LBA4404pGPTV-KAN-GUSint (histological GUS assay); format: cell-based, Brassica rapa ssp. oleifera; conditions: for Average %: average of cultivars
explants of turnip rape = system: explants of turnip rape
Protocol: (§1) Selection and regeneration. […] Thereafter the whole explants or cut callus pieces with the green nodules and primordia were transferred on hormone free MS medium, where nodules developed primordia and shoots. Silver nitrate in concentration 0-90 μM (0-15 mg/l) and porous paper tape for sealing of Petri dishes were used in transformation and regeneration of transgenic plants.
Shoot regeneration. Effects of different hormones on various explants of mature plants of turnip rape were tested in preliminary experiments to achieve sufficient shoot regeneration.
Silver nitrate application and aeration. The use of silver nitrate in in vitro cultivation of turnip rape has often been reported as an essential factor for shoot regeneration (Chi et al. 1990; Hachey et al. 1991; Mukhopadhuay et al. 1992; Radke et al. 1992). […] We have examined the effect of silver nitrate on regeneration capacity of explants of turnip rape.
Selection. To prevent Agrobacterium growth on the medium we used claforan (cefotaxim) 500 mg/l or carbenicillin 200 mg/l.

Agrobacterium = conditions: 5 mg/l (30 μM); MS medium during co-cultivation with plant explants
From the text: We have transformed inflorescence stem segments of turnip rape using different concentrations of silver nitrate and sealed plates with plant explants by parafilm or porous paper tape. Transformation efficiency was examined in histological GUS assay 4 days after co-cultivation. Transformation efficiency is shown in Table 4 as proportion of explants with blue inclusions in the calli per all explants (also in %).

[2] = system: turnip rape plants cv. Valtti and Sisu; assay: Transgenic shoot regeneration under antibiotic selection
Protocol: as §1
Selection on kanamycin or hygromycin was applied immediately after co-cultivation of the explants with Agrobacteria, three days after beginning of the whole procedure. Antibiotics were used in concentrations 20-25 mg/l during all steps of regeneration and cultivation of transgenic plants.
Using nptII and hpt genes in transformation constructions provides the plants resistance to kanamycin and hygromycin, respectively. […] Because morfogenesis occurs mainly on the basal side of the stem segmets, explants are placed basal side down on the selection medium.
Turnip rape plants cv. Valtti and Sisu were transformed with LBA4404 pGPTV-KAN-GUSint and LBA4404 pGPTV-HPT-GUSint.
Analysis of transformation. Green regenerated shoots were checked for GUS activity. Leaves or leaf pieces were prepared for histological GUS assay as described above.

[3] = 100 μM AS added in MS medium during inoculation and cocultivation, cv. Sisu
[4] = 100 μM AS added in MS medium during inoculation and cocultivation, cv. Valtti
[5] = 100 μM AS in MS medium and Agrobacterium grown one night with 100 μM acetosyringone, cv. Sisu
[6] = 100 μM AS in MS medium and Agrobacterium grown one night with 100 μM acetosyringone, cv. Valtti
[7] = selection on 20 mg/l, cultivars Sisu and Valtti

With `COc1cc(C(C)=O)cc(OC)c1O` [AS, 3,5-dimethoxy-4-hydroxyacetophenon] the Average % ([1]; 100 μM AS added in MS medium during inoculation and cocultivation) was 41.6%, the “GUS +/all” value [1, 3] was 24/65 and the “GUS +/all %” value [1, 3] was 36.9%. For the same molecule, the “GUS +/all” value [1, 4] was 36/78, the “GUS +/all %” value [1, 4] was 46.2% and the Average % ([1]; 100 μM AS in MS medium and Agrobacterium grown one night with 100 μM acetosyringone) was 46.6%. The “GUS +/all” value [1, 5] was 29/65, the “GUS +/all %” value [1, 5] was 44.6% and the “GUS +/all” value [1, 6] was 35/72. The “GUS +/all %” value [1, 6] was 48.6%.
With `O=[N+]([O-])[O-].[Ag+]` [AgNO3, silver nitrate] the “Shoot regeneration optimum concentration” value (explants of turnip rape) was 5 to 10 mg/L, the “effect of high concentrations on cultivated calli” value (explants of turnip rape) was “browning and partial necrosis of cultivated calli” and the “effect on Agrobacterium growth” value (Agrobacterium) was “suppresses Agrobacterium growth”. The Average % ([1]; 5 mg/l AgNO3) was 29.5%, the “GUS +/all %” value ([1]; 5 mg/l AgNO3, cv. Sisu) was 27.1% and the “GUS +/all” value ([1]; 5 mg/l AgNO3, cv. Sisu, 4 days after co-cultivation) was 19/70. For the same molecule, the “GUS +/all” value ([1]; 5 mg/l AgNO3, cv. Valtti) was 14/37, the “GUS +/all %” value ([1]; 5 mg/l AgNO3, cv. Valtti) was 37.8% and the Average % ([1]; 10 mg/l AgNO3) was 37.6%. The “GUS +/all” value ([1]; 10 mg/l AgNO3, cv. Sisu) was 15/53, the “GUS +/all %” value ([1]; 10 mg/l AgNO3, cv. Sisu) was 28.3% and the “GUS +/all” value ([1]; 10 mg/l AgNO3, cv. Valtti) was 15/32. The “GUS +/all %” value ([1]; 10 mg/l AgNO3, cv. Valtti) was 46.9%, the Average % ([1]; 15 mg/l AgNO3) was 37.6% and the “GUS +/all” value ([1]; 15 mg/l AgNO3, cv. Sisu) was 17/40. For the same molecule, the “GUS +/all %” value ([1]; 15 mg/l AgNO3, cv. Sisu) was 42.5%, the “GUS +/all” value ([1]; 15 mg/l AgNO3, cv. Valtti) was 14/43 and the “GUS +/all %” value ([1]; 15 mg/l AgNO3, cv. Valtti) was 32.6%. For the same molecule, the effect on transformation ([1]; silver nitrate in the cultivation medium) was “does not have a negative effect on transformation”.
For `CO/N=C(\C(=O)N[C@@H]1C(=O)N2C(C(=O)O)=C(COC(C)=O)CS[C@H]12)c1csc(N)n1` [Claforan, cefotaxim], the “recovering of transgenic shoots after inoculation with Agrobacteria” value ([2]; claforan used to prevent Agrobacterium growth) was “full block of recovering of transgenic shoots” and the “decrease of shoot regeneration frequency compared to carbenicillin” value (explants of turnip rape; claforan 500 mg/l vs carbenicillin 200 mg/l, data not shown) was 2-5 times.
In the case of `O=C(O)Cc1c[nH]c2ccccc12` [IAA, indole-3-acetic acid], the “effect on shoot regeneration relative to BAP and NAA” value (explants of turnip rape; data not shown) is reported as “less effective than BAP and NAA”.
In the case of `NC[C@H]1O[C@H](O[C@H]2[C@H](O)[C@@H](O[C@H]3O[C@H](CO)[C@@H](O)[C@H](N)[C@H]3O)[C@H](N)C[C@@H]2N)[C@H](O)[C@@H](O)[C@@H]1O` [Kanamycin], the escape proportion ([2]; selection of transgenic shoots) is reported as 80-90%, the “Escapes per green shoots” value [2, 7] is reported as 52/59 and the “Escapes per green shoots %” value [2, 7] is reported as 88%. The “GUS positive per all explants” value [2, 7] was 7/182, the “GUS positive per all explants %” value [2, 7] was 4% and the “Green shoots per all explants” value [2, 7] was 59/182. For the same molecule, the “Green shoots per all explants %” value [2, 7] was 32%.
In the case of `CC1(C)S[C@@H]2[C@H](NC(=O)C(C(=O)O)c3ccccc3)C(=O)N2[C@H]1C(=O)O` (some centres unmarked) [carbenicillin], the effect on regeneration (explants of turnip rape; 200 mg/l, data not shown) is reported as “does not have an apparent negative effect on regeneration”.
With `c1coc(CNc2ncnc3[nH]cnc23)c1` [kinetin] the “effect on shoot regeneration relative to BAP and NAA” value (explants of turnip rape; data not shown) was “less effective than BAP and NAA”.
